Measured values taken from patent publication US11667652B2, “MCL1 inhibitors” (Gilead Sciences, Inc., priority 2019, dated 2023).
Read-outs that look alike come from different tables or passages of the source.

Legend:
MCL1/Bim = MCL1/Bim (Homo sapiens (Human), UniProt Q07820); assay: MCL1/Bim Binding AlphaLISA Assay; conditions: recombinant human 6xHis-MCL1 (171-327), biotinylated Bim peptide (51-76)
Procedure: MCL1/Bim Binding AlphaLISA Assay.
Inhibition of the MCL1 and Bim interaction was measured in the following AlphaLISA assay.
Recombinant human MCL1 protein (C-terminal 6×His Tagged MCL1 containing residues 171-327) was generated at Gilead Sciences, Inc. (Foster City, Calif.). A biotinylated peptide derived from human Bim (residues 51-76) was purchased from CPC Scientific (Sunnyvale, Calif.). (CPC 834113). AlphaLISA anti-6His- acceptor beads (AL128R), AlphaScreen Streptavidin donor beads (6760002B), and Proxiplate-384 Plus (6008289) were purchased from PerkinElmer.
The AlphaLISA assay was performed in a 384-well Proxiplate in a total volume of […]. The reaction mixture contained 0.0625 nM 6×His-MCL1 (171-327), 0.0625 nM biotinylated-Bim peptide, 10 μg/mL AlphaLISA anti-6×His-AlphaLISA acceptor beads, 40 μg/mL AlphaScreen streptavidin donor beads, and serially diluted test compounds in the binding buffer (20 mM Hepes, pH 7.5 (Teknova H1035); 150 mM NaCl (Promega V4221); 0.002% Brij 35 (Thermo Scientific 20150); 1 mM Dithiothreitol (DTT) Solution (Affymetrix 70726); 0.01% BSA (BioLabs B9000S)). 1,000× test compounds were pre-spotted onto 384-well Proxiplate (Labcyte Echo) by Echo 555 Liquid Handler (Labcyte Inc., San Jose, Calif.) followed by incubation of 5 μL MCL1(171-327) for 1 hour. Then 5 μL Bim (51-76) was added and incubated for 2 hours. Five μL AlphaLISA anti-6His-AlphaLISA acceptor beads were then added for 1 hour followed by addition of 5 μL AlphaScreen streptavidin donor beads for 1 hour. The reaction plates were then read on an Envision multimode reader (PerkinElmer) using AlphaScreen settings. Percent inhibition was calculated as shown below: % Inhibition=100%*(Well−Neg)/(Pos−Neg) Neg: negative control, DMSO Pos: positive control, no MCL1 protein, no biotinylated-Bim peptide

SKBR3 cells = assay: SKBR3 Cell Viability Assay; assay type: cell-based; conditions: CellTiter Glo, read-out: MCL1 CV SKBR3 EC50
Procedure: SKBR3 Cell Viability Assay Materials
SKBR3 Cells (ATCC HTB-30) were obtained from ATCC (Manassas, Va.) and cultured in McCoy 5A's medium (ATCC 30-2007)+10% fetal bovine serum (SH30071.03, HyClone, Pittsburgh, Pa.) plus 1× Penicillin-Streptomycin L-glutamine (Corning 30-009-CI, Corning, N.Y.).
The cell viability assay was conducted in a 384-well tissue culture plate (Grenier 781086, Monroe, N.C.) in a total volume of 70 μL. Test compounds were prepared in 1,000×, serially diluted, and pre-spotted into 384-well tissue culture plate by Echo 555 Liquid Handler (Labcyte Inc., San Jose, Calif.). Seventy μL of 6,000 SKBR3 cells were dispensed into each well of the plate and incubated at 37° C. with 5% CO2 for 72 hours. At the end of incubation, 2× CellTiter Glo (CTG) reagents (1 part buffer with 2 parts substrate) (Promega, Madison, Wis.) were prepared, and the plate and the reagent were equilibrated to room temperature for 30 minutes. CTG reagent was added to each plate by Biomek FX at 20 μL/well with 5 times pipetting and mixing to induce cell lysis. Luminescence was read by Envision multimode reader (PerkinElmer). Percent inhibition was calculated as followed: % Inhibition=100%*(Well−Neg)/(Pos−Neg) Neg, negative control, DMSO Pos, positive control, 10 μM Puromycin

[1] = Homo sapiens, SK-BR-3, 72 hours

Chain of MCL1/Bim (Q07820 171-327): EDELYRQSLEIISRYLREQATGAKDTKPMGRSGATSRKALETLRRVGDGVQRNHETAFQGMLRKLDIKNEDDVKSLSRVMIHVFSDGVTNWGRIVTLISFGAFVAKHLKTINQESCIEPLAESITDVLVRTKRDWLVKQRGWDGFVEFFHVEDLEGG

IC50 (MCL1/Bim) | EC50 (SKBR3 cells; [1]) | EC50 (SKBR3 cells; 72 hours) | SMILES
0.129 nM | 38.7 nM | – | CO[C@H]1/C=C/C[C@H](C)C[S@@](=O)(Nc2nc(C)nc3nn(C)cc23)=NC(=O)c2ccc3c(c2)N(C[C@@H]2CC[C@H]21)C[C@@]1(CCCc2cc(Cl)ccc21)CO3 [Example 12]
0.038 nM | 15.3 nM | – | C[C@H]1C/C=C/[C@H](O)[C@@H]2CC[C@H]2CN2C[C@@]3(CCCc4cc(Cl)ccc43)COc3ccc(cc32)C(=O)N=[S@](=O)(Nc2ncnc3nn(C)cc23)C1 [Example 29]
0.028 nM | – | 35.3 nM | COc1nn(C)cc1C(=O)N[S@@]1(=O)=NC(=O)c2ccc3c(c2)N(C[C@@H]2CC[C@H]2[C@](O)(C#CCN(C)C)/C=C/C[C@H](C)C1)C[C@@]1(CCCc2cc(Cl)ccc21)CO3 [Example 109]
1.67 nM | – | 3570 nM | CC[C@H]1C/C=C/[C@H](OC)[C@@H]2CC[C@H]2CN2C[C@@]3(CCCc4cc(Cl)ccc43)COc3ccc(cc32)C(=O)N=[S@@](=O)(NC(=O)c2cnn(C)c2)C1 [Example 43]
0.026 nM | 10.3 nM | – | CO[C@H]1/C=C/C[C@H](C)C[S@@](=O)(NC(=O)c2cn(C)nc2N2CCN(C3COC3)CC2)=NC(=O)c2ccc3c(c2)N(C[C@@H]2CC[C@H]21)C[C@@]1(CCCc2cc(Cl)ccc21)CO3 [Example 24]
0.087 nM | 546 nM | – | COc1nn(C)cc1C(=O)N[S@@]1(=O)=NC(=O)c2ccc3c(c2)N(C[C@@H]2CC[C@H]2/C=C/C=C\[C@H](C)C1)C[C@@]1(CCCc2cc(Cl)ccc21)CO3 [Example 131]
0.066 nM | 37.8 nM | – | CO[C@H]1/C=C/C[C@H](C)C[S@@](=O)(Nc2nc(N(C)C)nc3nn(C)cc23)=NC(=O)c2ccc3c(c2)N(C[C@@H]2CC[C@H]21)C[C@@]1(CCCc2cc(Cl)ccc21)CO3 [Example 19]
0.075 nM | – | 1410 nM | COc1nn(C)cc1C(=O)N[S@@]1(=O)=NC(=O)c2ccc3c(c2)N(C[C@@H]2CC[C@H]2[C@](O)(CC(=O)N(C)C)/C=C/C[C@H](C)C1)C[C@@]1(CCCc2cc(Cl)ccc21)CO3 [Example 96]
0.04 nM | 127 nM | – | CO[C@H]1/C=C/C[C@H](C)C[S@@](=O)(NC(=O)c2cn(C)nc2C#CC(C)(C)O)=NC(=O)c2ccc3c(c2)N(C[C@@H]2CC[C@H]21)C[C@@]1(CCCc2cc(Cl)ccc21)CO3 [Example 209]
3.86 nM | – | 1950 nM | CCO/C1=C/C[C@H](OC)[C@@H]2CC[C@H]2CN2C[C@@]3(CCCc4cc(Cl)ccc43)COc3ccc(cc32)C(=O)N=[S@](=O)(NC(=O)c2cn(C)nc2OC)[C@H](C)[C@H]1C [Example 158]
0.103 nM | 40 nM | – | CO[C@@H]1/C=C\C[C@H](C)C[S@@](=O)(Nc2ncnc3nn(C)cc23)=NC(=O)c2ccc3c(c2)N(C[C@@H]2CC[C@H]21)C[C@@]1(CCCc2cc(Cl)ccc21)CO3 [Example 27]
0.214 nM | 331 nM | – | COc1nn(C)cc1C(=O)N[S@@]1(=O)=NC(=O)c2ccc3c(c2)N(C[C@@H]2CC[C@H]2[C@@H](OC)C[C@H]2CCO[C@@H]2CC1)C[C@@]1(CCCc2cc(Cl)ccc21)CO3 [Example 160]
0.11 nM | 170 nM | – | CO[C@H]1/C=C/C[C@H](C)C[S@@](=O)(Nc2nc(Cl)nc3nn(C)cc23)=NC(=O)c2ccc3c(c2)N(C[C@@H]2CC[C@H]21)C[C@@]1(CCCc2cc(Cl)ccc21)CO3 [Example 9]
0.04 nM | 57.7 nM | – | COc1nn(C)cc1C(=O)N[S@@]1(=O)=NC(=O)c2ccc3c(c2)N(C[C@@H]2CC[C@H]2[C@@H](OC)C#CC[C@H](C)C1)C[C@@]1(CCCc2cc(Cl)ccc21)CO3 [Example 37]

The remaining lines, values behind:

SMILES | IC50 (MCL1/Bim) | EC50 (SKBR3 cells; [1]) | EC50 (SKBR3 cells; 72 hours)
COc1nn(C)cc1C(=O)N[S@@]1(=O)=NC(=O)c2ccc3c(c2)N(C[C@@H]2CC[C@H]2[C@](O)(CCN2CCOCC2)/C=C/C[C@H](C)C1)C[C@@]1(CCCc2cc(Cl)ccc21)CO3 [Example 114] | 0.319 nM | – | 51 nM
CCn1cc(C(=O)N[S@@]2(=O)=NC(=O)c3ccc4c(c3)N(C[C@@H]3CC[C@H]3[C@@H](OC)/C=C/C[C@H](C)C2)C[C@]2(CO4)SCCc3cc(Cl)ccc32)cn1 [Example 178] | 0.05 nM | 25.9 nM | –
COc1nn(C)cc1C(=O)N[S@@]1(=O)=NC(=O)c2ccc3c(c2)N(C[C@@H]2CC[C@H]2[C@@H](OC)C[C@H]2CCO[C@@H]2[C@H](C)[C@H]1C)C[C@@]1(CCCc2cc(Cl)ccc21)CO3 [Example 159] | 0.689 nM | – | 381 nM
COc1nn(C)cc1C(=O)N[S@@]1(=O)=NC(=O)c2ccc3c(c2)N(C[C@@H]2CC[C@H]2[C@@](O)(CC(=O)N2CCOCC2)/C=C/C[C@H](C)C1)C[C@@]1(CCCc2cc(Cl)ccc21)CO3 [Example 99] | 0.034 nM | – | 14.2 nM
COc1nn(C)cc1C(=O)N[S@@]1(=O)=NC(=O)c2ccc3c(c2)N(C[C@@H]2CC[C@H]2[C@@H](OC)/C=C/[C@H](OCc2cn(C)cn2)[C@H](C)C1)C[C@@]1(CCCc2cc(Cl)ccc21)CO3 [Example 85] | 0.085 nM | 164 nM | –
COc1nn(C)cc1C(=O)N[S@@]1(=O)=NC(=O)c2ccc3c(c2)N(C[C@@H]2CC[C@H]2[C@@H](OC)/C=C/[C@@H](OC)[C@H](C)[C@H]1C)C[C@@]1(CCCc2cc(Cl)ccc21)CO3 [Example 69] | 2.07 nM | – | 1000 nM
COc1nn(C)cc1C(=O)N[S@@]1(=O)=NC(=O)c2ccc3c(c2)N(C[C@@H]2CC[C@H]2[C@H]2OC(O)C[C@@H]2CC[C@H](C)C1)C[C@@]1(CCCc2cc(Cl)ccc21)CC3 (mixture of isomers) [Example 150] | 0.035 nM | 114 nM | –
CO[C@H]1/C=C/C[C@H](C)C[S@@](=O)(NC(=O)NCC2CC2)=NC(=O)c2ccc3c(c2)N(C[C@@H]2CC[C@H]21)C[C@]1(CO3)C[C@@H]2C[C@@H]2c2cc(Cl)ccc21 [Example 165] | 0.18 nM | 369 nM | –
CO[C@H]1/C=C/C[C@H](C)C[S@@](=O)(NC(=O)c2cnn(C)c2)=NC(=O)c2ccc3c(c2)N(C[C@@H]2CC[C@H]21)C[C@]1(CO3)C[C@@H]2C[C@@H]2c2cc(Cl)ccc21 [Example 167] | 0.101 nM | 46.3 nM | –
CO[C@H]1/C=C/C[C@H](C)[C@@H](C)[S@@](=O)(NC(=O)COC2CCOCC2)=NC(=O)c2ccc3c(c2)N(C[C@@H]2CC[C@H]21)C[C@]1(CO3)C[C@@H]2C[C@@H]2c2cc(Cl)ccc21 [Example 169] | 0.048 nM | 215 nM | –
CO[C@H]1/C=C/[C@H](OC)[C@H](C)C[S@@](=O)(NC(=O)c2cn(C)nc2OCCN2CCOCC2)=NC(=O)c2ccc3c(c2)N(C[C@@H]2CC[C@H]21)C[C@@]1(CCCc2cc(Cl)ccc21)CO3 [Example 70] | 0.198 nM | – | 92.9 nM
COc1nn(C)cc1C(=O)N[S@@]1(=O)=NC(=O)c2ccc3c(c2)N(C[C@@H]2CC[C@H]2[C@@](O)(CC(=O)N2CCN4CCOCC4C2)/C=C/C[C@H](C)C1)C[C@@]1(CCCc2cc(Cl)ccc21)CO3 (stereo partly shown) [Example 102] | 0.026 nM | – | 16.1 nM
COc1nn(C)cc1C(=O)N[S@@]1(=O)=NC(=O)c2ccc3c(c2)N(C[C@@H]2CC[C@H]2[C@@H](OC)/C=C/[C@@H](OC)[C@H](C)[C@H]1C)C[C@@]1(CCCc2cc(Cl)ccc21)CO3 [Example 68] | 0.2 nM | – | 93.8 nM
COc1nn(C)cc1C(=O)N[S@@]1(=O)=NC(=O)c2ccc3c(c2)N(C[C@@H]2CC[C@H]2[C@@H](OC)/C=C/[C@H](OCc2nccn2C)[C@H](C)C1)C[C@@]1(CCCc2cc(Cl)ccc21)CO3 [Example 83] | 0.1 nM | 99.1 nM | –
CC[C@@H]1CC/C=C/[C@H](OC)[C@@H]2CC[C@H]2CN2C[C@@]3(CCCc4cc(Cl)ccc43)COc3ccc(cc32)C(=O)/[N+]([O-])=[S@]\1NC(=O)c1cn(C)nc1OC [Example 41] | 0.146 nM | – | 126 nM
